Experiment [1] relates to 4T1 orthotopic breast tumor vasculature. As to the kind of experiment: Tumor vascular normalization in breast cancer mouse model (immunofluorescence, lectin perfusion, HIF-1α IHC, H&E). In kind it is in vivo, BALB/c mice. On the procedure:
The tumor tissues were then excised. […] All animals were raised in an SPF environment. […] We followed all the rules and regulations.
Paraffin-embedded mouse tumor tissue sections were deparaffinized, rehydrated, and fixed with 4% paraformaldehyde at room temperature for 20 min. After washing with PBS, the sections were permeabilized with 1% Triton X-100 (Solarbio, China) for 15 min at room temperature, followed by blocking with 5% bovine serum albumin (BSA) in PBS containing 0.1% Triton X-100 for 1 h at room temperature to reduce nonspecific binding. The sections were first incubated with primary antibodies against PECAM-1 (CD31) and α-smooth muscle actin (α-SMA), including Alexa Fluor 488-conjugated anti-CD31 antibody (clone SC-376764-AF488, Santa Cruz Biotechnology, […]) and rabbit anti-α-SMA antibody (catalog no. AF0048, Beyotime Biotechnology, China). After washing, the sections were further incubated overnight at 4 °C with primary antibodies against dsDNA and HSP60. The next day, the sections were incubated with Alexa Fluor 647-conjugated goat anti-rabbit IgG (H + L) secondary antibody (catalog no. A0468, Beyotime Biotechnology, China) for 1 h at room temperature in the dark. Nuclear staining was performed using DAPI (catalog no. C0060, Solarbio, China). Finally, all slides were mounted with antifade mounting medium and observed using a […] 5 confocal microscope (Leica Microsystems, Germany).
Immunohistochemical staining was performed on formalin-fixed, paraffin-embedded tissue sections. After deparaffinization and rehydration, antigen retrieval was conducted by heating the sections in citrate buffer (pH 6.0) at 95 °C for 12 min. Endogenous peroxidase activity was blocked by incubation with 3% hydrogen peroxide for 10 min at room temperature, followed by blocking of non-specific binding sites with 10% goat serum for 30 min at room temperature. The sections were then incubated overnight at 4 °C with a primary antibody against HIF-1α (rabbit anti-human, catalog no. 48085 T, Cell Signaling Technology, USA) diluted at 1:200. After washing, the sections were incubated with HRP-conjugated goat anti-rabbit IgG secondary antibody (catalog no. A0208, Beyotime Biotechnology, China) at a dilution of 1:500 for 30 min at room temperature. Color development was achieved using a DAB substrate kit, and the sections were counterstained with hematoxylin. After dehydration, clearing, and mounting with neutral resin, the stained sections were observed and imaged under an inverted microscope.
To quantitatively assess vascular maturation, we performed dual immunofluorescence staining for the endothelial cell marker CD31 and pericyte marker α-SMA in tumor tissues. […] In addition, vascular perfusion indicates their transmission function is crucial for the delivery of chemotherapeutic and […] agents. To evaluate the effect of candesartan on tumor vascular perfusion function, DyLight™649-labeled tomato lectin (40 mg/kg), which specifically labels perfused blood vessels, was injected into the mice via tail vein injection 1.5 h before sacrifice. Then, perform frozen sectioning of the tumor tissue, microvessels were labeled with CD31 by immunofluorescence, and the co-expression percentage of tomato lectin and CD31^+ was observed and calculated. As shown in Fig. 4C-D, only a small fraction of CD31^+ blood vessels in the control group were coated with tomato lectin, with a low percentage of CD31^+Lectin^+.

Experiment [2] has as its system STING signaling pathway in HUVEC. Briefly: Western blot of STING pathway proteins. The experiment is classed as cell-based, human. Particulars: 48 h. The method, then:
Total protein was extracted using RIPA lysis buffer (Solarbio, China) supplemented with phenylmethylsulfonyl fluoride (PMSF; Thermo Fisher Scientific, USA), protease inhibitor cocktail (Roche, Switzerland), and phosphatase inhibitor cocktail (Roche, Switzerland). Protein concentration was determined using a BCA protein assay kit (Thermo Fisher Scientific, USA). Equal amounts of protein were separated by 10% SDS-polyacrylamide gel electrophoresis (SDS-PAGE) and transferred onto nitrocellulose (NC) membranes. […] All primary antibodies were purchased from Cell Signaling Technology (CST, USA), except for GAPDH, which was obtained from Proteintech (Wuhan, China). After washing, the membranes were incubated with HRP-conjugated goat anti-rabbit or anti-mouse IgG secondary antibodies (Biosharp, China) for 1 h at room temperature. Protein bands were visualized using an enhanced chemiluminescence (ECL) detection system and scanned using a chemiluminescence imaging system.

In experiment [3] the test system is HUVEC. Briefly: ROS generation assay (DCFH-DA flow cytometry). To be noted: 3.75-15 µM. In kind it is cell-based, human. On the procedure: Flow cytometry was performed to measure intracellular reactive oxygen species (ROS) levels using DCFH-DA (2’,7’-Dichlorodihydrofluorescein diacetate). Cells were collected and stained with DCFH-DA, followed by incubation at 37℃ for 30 min in the dark. Subsequently, the cell populations were analyzed by flow cytometry.
A general note: A flow cytometer gives signals particle by particle.

In experiment [4] the target is T1, APLNR (Homo sapiens, UniProt P35414).
T1 sequence (P35414 1-380): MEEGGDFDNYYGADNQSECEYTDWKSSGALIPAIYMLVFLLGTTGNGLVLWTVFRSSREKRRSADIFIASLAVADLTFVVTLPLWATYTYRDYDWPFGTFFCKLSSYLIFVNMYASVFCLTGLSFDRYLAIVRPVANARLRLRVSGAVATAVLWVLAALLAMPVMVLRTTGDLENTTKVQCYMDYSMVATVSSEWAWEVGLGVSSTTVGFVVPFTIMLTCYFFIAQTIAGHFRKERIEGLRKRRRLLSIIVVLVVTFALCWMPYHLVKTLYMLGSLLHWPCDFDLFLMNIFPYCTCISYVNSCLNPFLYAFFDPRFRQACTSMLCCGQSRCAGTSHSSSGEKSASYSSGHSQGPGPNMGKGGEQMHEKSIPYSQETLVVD
Briefly: FLIPR Calcium 6 assay, inhibition of Apelin-13-induced calcium flux. The experiment is classed as cell-based. Also noted: expressed in transfected cells; host or cells: HEK293.
Experimental: HEK293 cells stably expressing APLNR were seeded in 96-well plates (20,000 cells/well) and loaded with Calcium 6 dye (Molecular Devices) for 2 h. Candidate compounds dissolved in DMSO were applied at 2 µM for 15 min, followed by stimulation with the endogenous agonist Apelin-13 (100 nM). Real-time intracellular calcium flux was quantified using FLIPR Tetra® System (470–495 nm excitation/515–575 nm emission).
These candidates were further evaluated for APLNR inhibitory activity at the concentration of 2 µM by using a FLIPR® Calcium 6 Assay Kit, which quantifies ligand-induced intracellular calcium flux.

Molecules are shown by their SMILES.

By IC50 is commonly meant the concentration that inhibits the measured activity by half. Broadly, the inhibition is the relative decrease from the control value, in per cent. As for `CCOc1nc2cccc(C(=O)O)c2n1Cc1ccc(-c2ccccc2-c2nnn[nH]2)cc1` [Compound A-2, Candesartan], the “Percentage of CD31+Lectin+ (vascular perfusion)” value in experiment [1] (10 mg/kg and 30 mg/kg, tomato lectin) is recorded as “significantly increased”. The “Coverage of α-SMA+ pericyte on CD31+ endothelial cell” value in experiment [1] (10 mg/kg and 30 mg/kg, vs vehicle) is “significant increase”. Moreover, in experiment [1] (IHC), the “HIF-1α expression in tumor tissues” value is reported as “significant decline”. For the same compound, the “Tumor necrosis (H&E)” value is “tendency towards increased necrosis” in experiment [1] (high-dose 30 mg/kg) and “reduced necrotic areas” in experiment [1] (low-dose 10 mg/kg). Also, the “STING, p-TBK1/TBK1 and p-IRF3/IRF3 levels” value in experiment [2] is “dose-dependent upregulation”. Further, the ROS levels result in experiment [3] is listed as “gradually increased with increasing drug concentration”. The concentration for half-maximal inhibition (IC50) in experiment [4] (FLIPR system, read-out: IC50, inhibition of Apelin-13-mediated calcium mobilization) worked out at 1.21 µM. The inhibition at 2 µM in experiment [4] (compound 2 µM, 15 min, then Apelin-13 100 nM, HEK293 cells stably expressing APLNR, read-out: Inhibition rate (2 μM, %)) is 72.3%.

The record behind these values is publication PMC12763877 (Journal of Experimental & Clinical Cancer Research : CR, 2025).
